Measured values taken from article PMC10765375, “Crystal structure and enzymology of Solanum tuberosum inositol tris/tetrakisphosphate kinase 1 (StITPK1)” (Biochemistry, 2023).
“Also recorded” adds a separate entry of the source. Read-outs that look alike come from different tables or passages of the source.

Legend:
StITPK1 [1] = target: T1, StITPK1 (Solanum tuberosum, UniProt A4H2J0); experiment: Reverse (phosphotransfer to ADP) assay, HPLC; assay type: biochemical; conditions: 0.5 mM ADP, 12h
Procedure: The low rate constants for phospho-kinase activity and the low sensitivity of NMR, PAGE and HPLC […]
(§1) [2-3, 27-29], here with or without 4 µM protein for 3h or 12h at 25 °C. […]
(§2) (phosphotransfer to ADP) assays were performed with 20 mM HEPES pH 6.5, 1 mM MgCl2, 0.5mM ADP and 0.5 mM inositol pyrophosphate substrate incubated with 4 µM protein at 25 °C . HPLC analysis and detection of inositol phosphates by complexation with ferric ion was performed as described. Peak area data were analysed with the chromatography Jasco ChromNav v.2 software and x,y data were imported into GraphPad Prism v.6 software (GraphPad Software Inc., San Diego, USA) for plotting of chromatograms without additional processing of the data. […]

StITPK1 [2] = target: T1, StITPK1; experiment: Fluorescence polarization displacement of 2-FAM-InsP5; assay type: binding; conditions: Cheng-Prusoff with Kd 48 nM
Source text: To determine the relative strengths of binding of different inositol phosphate and inositol pyrophosphate substrates of StITPK1 we undertook fluorescence polarization experiments with 2-FAM-InsP5 [35]. […] A saturation curve for binding of 2-FAM-InsP5 to StITPK1 is shown (Figure S5) and displacement curves are shown for diverse inositol phosphates (Figure 2). The structures of these compounds are shown (Figure S1). […]
Fluorescence polarization (anisotropy)
A curve for binding of 2-FAM-InsP5 to StITPK1 was obtained by incubation of 2 nM 2-FAM-InsP5 [1] with increasing concentration (1-500 nM) of StITPK1 in 20 mM HEPES pH 6.5, 1 mM EDTA, 100 mM NaCl, after. Thereafter, displacement assays were performed by titration of inositol phosphate, inositol pyrophosphate […]
or analog thereof with 2 nM 2-FAM-InsP5 and 50 nM StITPK1. Compounds were tested for displacement in a range of 1 nM - 50 µM. Fluorescence polarization was measured in 384-well, black, low-binding plates, Corning product 3573. Binding and displacement curves (anisotropy) were log transformed and fitted to a 4-parameter logistic (in GraphPad Prism v.6 software (GraphPad Software Inc., San Diego, USA). Fitting of the […]
Substituting the value of Kd for KM in the Cheng-Prusoff equation for competitive inhibition: […]
with concentration of 2-FAM-InsP5 [S], yielded Ki with confidence intervals adjusted by linear approximation.
M.; Jamieson, A. G.; Potter, B. V.; Schwabe, J. W., Insights into the activation mechanism of class I HDAC complexes by inositol phosphates. Nat Commun 2016, 7, 11262. […]

StITPK1 [3] = target: T1, StITPK1; experiment: Kinase assay with ATP, HPLC of products; assay type: biochemical; conditions: for Product formation (12h) / Product formation (separate 12h experiment) / Product formation (3h): 1 mM substrate; for Product formation (12h) / Product formation (3h): 25°C; for kinase substrate status: with ATP, HPLC
Procedure: (§3) Kinase assays were performed with ATP-regeneration as described for ATP-grasp kinases ITPK1/2 and VIH1/2 [2-3, 27-29], here in 20 mM HEPES pH 6.5, 1 mM MgCl2, 0.5 mM ATP and 1 mM inositol phosphate substrate. The low rate constants for phospho-kinase activity and the low sensitivity of NMR, PAGE and HPLC […]
[2-3, 27-29], here with or without 4 µM protein for 3h or 12h at 25 °C. Competition/inhibition assays were […]
InsP6, and competitor, typically 0.5 mM, incubated with or without 3 µM protein for 2 h at 25 °C . […]
as §2, with “0.5” for “(phosphotransfer to ADP) assays were performed with 20 mM HEPES pH 6.5, 1 mM MgCl2, 0.5mM ADP and 0.5”

StITPK1 [4] = target: T1, StITPK1; experiment: Competition/inhibition of Ins(1,2,3,4,5)P5 5-phospho-kinase activity, HPLC; assay type: biochemical; conditions: for % inhibition at 3h, Ins(1,2,3,4,5)P5 substrate: 0.5 mM competing substrate/inhibitor, 1 mM Ins(1,2,3,4,5)P5, 3h experiment; for inhibition of Ins(1,2,3,4,5)P5 phospho-kinase activity: 0.5 mM competitor
AtITPK1 = target: T2, AtITPK1; experiment: Kinase assay with ATP, HPLC of products; assay type: biochemical, Arabidopsis thaliana; conditions: with ATP, HPLC
T2 construct: made in house
Procedure: as §3, §1
as §2, with “0.5” for “(phosphotransfer to ADP) assays were performed with 20 mM HEPES pH 6.5, 1 mM MgCl2, 0.5mM ADP and 0.5”

[5] = Ki for displacement of 2-FAM-InsP5, 2 nM 2-FAM-InsP5, 50 nM StITPK1, pH 6.5
[6] = 2 nM 2-FAM-InsP5, 50 nM StITPK1, pH 6.5, read-out: Ki for displacement of 2-FAM-InsP5

T1 sequence (A4H2J0 entry or part of it): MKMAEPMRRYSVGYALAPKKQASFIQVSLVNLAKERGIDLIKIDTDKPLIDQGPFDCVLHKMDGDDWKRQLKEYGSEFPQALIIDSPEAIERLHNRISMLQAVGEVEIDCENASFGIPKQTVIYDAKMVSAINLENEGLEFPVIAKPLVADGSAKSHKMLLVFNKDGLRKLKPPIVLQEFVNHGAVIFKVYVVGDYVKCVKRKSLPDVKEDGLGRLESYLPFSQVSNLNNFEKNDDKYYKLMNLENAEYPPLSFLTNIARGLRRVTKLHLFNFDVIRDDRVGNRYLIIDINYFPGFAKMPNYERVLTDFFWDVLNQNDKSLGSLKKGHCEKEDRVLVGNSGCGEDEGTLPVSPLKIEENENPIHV

Structure (SMILES)	substrate for phosphotransfer to ADP (StITPK1 [1])	Ki (StITPK1 [2]; [5]) [nM]	Product formation (12h) (StITPK1 [3]) [μM/μM protein]	Product formation (separate 12h experiment) (StITPK1 [3]) [μM/μM protein]	kinase substrate status (StITPK1 [3])	Ki (StITPK1 [2]; [6]) [nM]	Product formation (3h) (StITPK1 [3]) [μM/μM protein]	% inhibition at 3h, Ins(1,2,3,4,5)P5 substrate (StITPK1 [4]) [%]	inhibition of Ins(1,2,3,4,5)P5 phospho-kinase activity (StITPK1 [4])	kinase substrate status (AtITPK1)
O=P(O)(O)CP(=O)(O)OC1C(OP(=O)(O)O)C(OP(=O)(O)O)C(OP(=O)(O)O)C(OP(=O)(O)CP(=O)(O)O)C1OP(=O)(O)O (stereo not drawn) [1,5-[PCP]2-InsP4]	neither									
O=P(O)(O)OC1C(OP(=O)(O)O)C(OP(=O)(O)O)C(OP(=O)(O)O)C(OP(=O)(O)O)C1OP(=O)(O)O (stereo not drawn) [scyllo-InsP6, scyllo-inositol 1,2,3,4,5,6-hexakisphosphate]		423	0	0	failure of StITPK1 to phosphorylate					
O=P(O)(O)O[C@@H]1[C@H](OP(=O)(O)O)[C@H](OP(=O)(O)O)[C@@H](O)[C@H](OP(=O)(O)O)[C@H]1OP(=O)(O)O [Ins(1,2,3,5,6)P5, 1D-myo-inositol 1,2,3,5,6-pentakisphosphate]				0	lacking activity	288				
O=P(O)(O)O[C@@H]1[C@@H](OP(=O)(O)O)[C@H](OP(=O)(O)OP(=O)(O)O)[C@@H](OP(=O)(O)O)[C@H](OP(=O)(O)OP(=O)(O)O)[C@@H]1OP(=O)(O)O [1,5-[PP]2-InsP4, 1D-1,5-bis-diphospho-myo-inositol 2,3,4,6-tetrakisphosphate]	both enantiomers are substrates									
O=P(O)(O)OC1C(OP(=O)(O)O)C(OP(=O)(O)O)C(OP(=O)(O)O)C(OP(=O)(O)O)C1OP(=O)(O)O [D-chiro-InsP6, 1-D-chiro-inositol 1,2,3,4,5,6-hexakisphosphate]		154	0	0	not a substrate					
O=P(O)(O)O[C@@H]1[C@@H](OP(=O)(O)O)[C@@H](OP(=O)(O)O)[C@@H](OP(=O)(O)OP(=O)(O)O)[C@H](OP(=O)(O)O)[C@H]1OP(=O)(O)O [1-PP-InsP5, 1D-1-diphospho-myo-inositol 2,3,4,5,6-pentakisphosphate]			75		the weaker substrate		9	76		
O=P(O)(O)O[C@@H]1[C@H](OP(=O)(O)O)[C@H](OP(=O)(O)OP(=O)(O)O)[C@@H](OP(=O)(O)O)[C@H](OP(=O)(O)OP(=O)(O)O)[C@H]1OP(=O)(O)O [3,5-[PP]2-InsP4, 1D-3,5-bis-diphospho-myo-inositol 1,2,4,6-tetrakisphosphate]	both enantiomers are substrates									
O=C(CP(=O)(O)O)NC1C(OP(=O)(O)O)C(OP(=O)(O)O)C(OP(=O)(O)O)C(OP(=O)(O)O)C1OP(=O)(O)O (stereo not drawn) [5-PCH2AM-InsP5, 5-deoxy-5-(phosphonoacetamido)-myo-inositol 1,2,3,4,6-pentakisphosphate]		889	25		very weak substrates		0	43		
O=C(NC1C(OP(=O)(O)O)C(OP(=O)(O)O)C(OP(=O)(O)O)C(OP(=O)(O)O)C1OP(=O)(O)O)C(F)(F)P(=O)(O)O (stereo not drawn) [5-PCF2AM-InsP5, 5-deoxy-5-(phosphonodifluoroacetamido)-myo-inositol 1,2,3,4,6-pentakisphosphate]		106	0		not a substrate		0	67		
O=P(O)(O)CP(=O)(O)OC1C(OP(=O)(O)O)C(OP(=O)(O)O)C(OP(=O)(O)O)C(OP(=O)(O)O)C1OP(=O)(O)O (stereo not drawn) [3-PCP-InsP5, myo-inositol 1,2,4,5,6-penta-phosphate-3-methylenediphosphonate]			232		better substrates		41	78	potent inhibitors	better substrates
O=P(O)(O)O[C@@H]1[C@@H](OP(=O)(O)O)[C@H](OP(=O)(O)O)[C@@H](O)[C@H](OP(=O)(O)O)[C@@H]1OP(=O)(O)O [Ins(1,2,3,4,5)P5, 1D-myo-inositol 1,2,3,4,5-pentakisphosphate]				257	showing phospho-kinase activity	431				
O=P(O)(O)O[C@@H]1[C@@H](OP(=O)(O)O)[C@H](OP(=O)(O)O)[C@@H](O)[C@@H](O)[C@H]1OP(=O)(O)O [Ins(1,4,5,6)P4, 1D-myo-inositol 1,4,5,6-tetrakisphosphate]				41		2560				
O=P(O)(O)CP(=O)(O)O[C@@H]1[C@H](OP(=O)(O)O)[C@H](OP(=O)(O)O)[C@@H](OP(=O)(O)O)[C@H](OP(=O)(O)O)[C@H]1OP(=O)(O)O [1-PCP-InsP5, myo-inositol 2,3,4,5,6-penta-phosphate-1-methylenediphosphonate]			145		better substrates		22	61	potent inhibitors	better substrates
O=P(O)(O)CP(=O)(O)OC1C(OP(=O)(O)O)C(OP(=O)(O)O)C(OP(=O)(O)O)C(OP(=O)(O)O)C1OP(=O)(O)O (stereo not drawn) [5-PCP-InsP5, myo-inositol 1,2,3,4,6-penta-phosphate-5-methylenediphosphonate]			0			101	0	60		
O=P(O)(O)OC1C(OP(=O)(O)O)C(OP(=O)(O)O)C(OP(=O)(O)O)C(OP(=O)(O)O)C1OP(=O)(O)O (stereo not drawn) [neo-InsP6, neo-inositol 1,2,3,4,5,6-hexakisphosphate]		111	0	0	failure of StITPK1 to phosphorylate					
O=P(O)(O)OC1[C@@H](OP(=O)(O)O)[C@H](OP(=O)(O)O)C(OP(=O)(O)OP(=O)(O)O)[C@@H](OP(=O)(O)O)[C@H]1OP(=O)(O)O (stereo partly drawn) [3-PP-InsP5, 1D-3-diphospho-myo-inositol 1,2,4,5,6-pentakisphosphate]			193		phospho-kinase substrates; also recorded: a stronger substrate than 1-PP-InsP5		35	71		a stronger substrate than 1-PP-InsP5
O=C(O)CP(=O)(O)O[C@H]1[C@H](OP(=O)(O)O)[C@@H](OP(=O)(O)O)[C@@H](OP(=O)(O)O)[C@@H](OP(=O)(O)O)[C@@H]1OP(=O)(O)O [5-PA-InsP5, myo-inositol 1,2,3,4,6-penta-phosphate-5-phosphonoacetate]			236		strongest phospho-kinase substrate after myo-InsP6		50	44		weak substrate
